Legend:
Assay type in all cases: cell-based
PfCRT^Dd2 [1] = target: T1, PfCRT^Dd2 (Plasmodium falciparum, UniProt Q9N623, A220S/I356T/K76T/M74I/N326S/N75E/Q271E/R371I); test: [3H]CQ uptake into Xenopus oocytes, cis-inhibition by unlabelled solute; settings: PfCRTDd2 oocytes, background [3H]CQ accumulation subtracted, normalised to oocyte type control
Description: (§1) The orientation of PfCRT in the parasite’s DV membrane, and also in the oocyte plasma membrane, is such that its N- and C-termini extend into the cytosol. The oocytes were suspended in a reaction buffer adjusted to pH 5.5 to mimic the pH of the DV lumen[1],[2]. In this scenario, the transport of a substrate via PfCRT from the acidic extracellular solution into the oocyte cytosol[15] is analogous to the parasite’s PfCRT-mediated efflux of a substrate from the acidic DV and into the cytosol. Unless specified otherwise, this is the direction in which substrate transport was measured in the oocyte assays.
(§2) Unless specified otherwise, the transport assays were conducted over 1.5 h at 27.5 °C and the reaction buffer was ND96 (96 mM NaCl, 2 mM KCl, 1 mM MgCl2, 1.8 mM CaCl2, 10 mM MES and 10 mM Tris-base) at pH 5.5.
(§3) Ten oocytes were washed twice with the relevant ND96 buffer. […] The assay was terminated by removing the reaction buffer and washing the oocytes with ice-cold ND96 buffer. The oocytes were lysed in 10% (w/v) sodium dodecyl sulfate (SDS) and the radioactivity accumulated within each oocyte was measured with a MicroBeta^2 microplate liquid scintillation analyser (PerkinElmer).
(§4) At least four independent experiments were performed (on different days and using oocytes from different frogs), and within each experiment measurements were made from ten oocytes per treatment.

PfCRT^Ecu1110 [2] = target: T2, PfCRT^Ecu1110 (Plasmodium falciparum, UniProt Q9N623, A220S/I356L/K76T/N326D); test: as above; settings: for PfCRT-mediated [3H]CQ transport, cis-inhibition (% PfCRTEcu1110 control): PfCRTEcu1110 oocytes, background [3H]CQ accumulation subtracted, normalised to oocyte type control; for [3H]CQ transport (% PfCRTEcu1110 control), cis-inhibition, PfCRTEcu1110: PfCRT-mediated component (background subtracted), sheet title says normalised to PfCRTDd2 control, mean ± SEM, SEM
Description: as §1, §2, §3, §4

PfCRT^3D7 = PfCRT^3D7 (Plasmodium falciparum, UniProt Q8IBZ9); test: cell-based; settings: PfCRT3D7 oocytes, normalised to oocyte type control
Description: as §2
(§5) The intracellular concentrations were calculated using previous estimates of the volume of stage V–VI oocytes (~400 nL[60]). […] The oocytes were injected with VF-6 suspended in 25 nL ND96 buffer adjusted to pH 5.0, 5.5, 6.0 or 7.0, which corresponded to the injection of 2.5–250 fmol of H^+. The Na^+-dependence of the trans-stimulatory effect of VF-6 was assessed by injecting the oocytes with VF-6 suspended in ND96 buffer (pH 5.5) or a Na^+-free version of this buffer (the Na^+ was replaced with choline).
as §4

PfCRT^Dd2 [3] = target: T1, PfCRT^Dd2; test: cell-based; settings: for PfCRT-mediated [3H]CQ transport, trans-stimulation (% PfCRTDd2 control): PfCRTDd2 oocytes, normalised to oocyte type control; for [3H]CQ transport (% PfCRTDd2 control), trans-stimulation, PfCRTDd2: PfCRT-mediated component (background subtracted), mean ± SEM, SEM
Description: as §2, §5, §4

PfCRT^Ecu1110 [4] = target: T2, PfCRT^Ecu1110; test: cell-based; settings: for PfCRT-mediated [3H]CQ transport, trans-stimulation (% PfCRTEcu1110 control): PfCRTEcu1110 oocytes, normalised to oocyte type control; for [3H]CQ transport (% PfCRTDd2 control), trans-stimulation, PfCRTEcu1110: PfCRT-mediated component (background subtracted), sheet title says normalised to PfCRTDd2 control, mean ± SEM, SEM
Description: as §2, §5, §4

[5] = [test solute]i = 5 mM (intracellular)
[6] = [test solute]i = 45 mM (intracellular; 30 mM for some solutes due to solubility)
[7] = [test solute]i = 5 mM (injected)
[8] = [test solute]i = 45 mM (30 mM for some solutes due to solubility)

T2 sequence (Q9N623 whole entry A220S/I356L/K76T/N326D): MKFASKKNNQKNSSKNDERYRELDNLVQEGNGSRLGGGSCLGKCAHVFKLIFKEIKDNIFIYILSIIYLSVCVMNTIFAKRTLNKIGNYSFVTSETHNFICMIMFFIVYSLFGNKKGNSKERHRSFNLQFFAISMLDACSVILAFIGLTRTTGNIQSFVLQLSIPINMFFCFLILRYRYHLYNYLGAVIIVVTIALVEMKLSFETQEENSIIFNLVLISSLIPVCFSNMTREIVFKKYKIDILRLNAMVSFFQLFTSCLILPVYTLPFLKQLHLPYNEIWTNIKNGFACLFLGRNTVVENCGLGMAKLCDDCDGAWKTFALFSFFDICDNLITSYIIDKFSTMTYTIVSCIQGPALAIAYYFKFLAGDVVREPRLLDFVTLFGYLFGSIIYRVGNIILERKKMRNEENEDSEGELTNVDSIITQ
T1 sequence (Q9N623 whole entry A220S/I356T/K76T/M74I/N326S/N75E/Q271E/R371I): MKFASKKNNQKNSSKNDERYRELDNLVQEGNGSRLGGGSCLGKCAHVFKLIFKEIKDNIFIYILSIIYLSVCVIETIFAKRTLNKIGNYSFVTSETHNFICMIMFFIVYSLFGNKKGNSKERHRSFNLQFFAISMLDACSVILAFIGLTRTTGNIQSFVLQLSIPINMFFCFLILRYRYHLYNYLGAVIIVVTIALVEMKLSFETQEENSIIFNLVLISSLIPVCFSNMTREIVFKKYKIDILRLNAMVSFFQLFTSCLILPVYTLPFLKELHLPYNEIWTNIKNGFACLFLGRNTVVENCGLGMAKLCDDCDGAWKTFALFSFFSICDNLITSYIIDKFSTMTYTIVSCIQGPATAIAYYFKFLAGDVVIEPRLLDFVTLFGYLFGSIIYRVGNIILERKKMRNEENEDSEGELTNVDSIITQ
Sequence of PfCRT^3D7 (Q8IBZ9 59-398): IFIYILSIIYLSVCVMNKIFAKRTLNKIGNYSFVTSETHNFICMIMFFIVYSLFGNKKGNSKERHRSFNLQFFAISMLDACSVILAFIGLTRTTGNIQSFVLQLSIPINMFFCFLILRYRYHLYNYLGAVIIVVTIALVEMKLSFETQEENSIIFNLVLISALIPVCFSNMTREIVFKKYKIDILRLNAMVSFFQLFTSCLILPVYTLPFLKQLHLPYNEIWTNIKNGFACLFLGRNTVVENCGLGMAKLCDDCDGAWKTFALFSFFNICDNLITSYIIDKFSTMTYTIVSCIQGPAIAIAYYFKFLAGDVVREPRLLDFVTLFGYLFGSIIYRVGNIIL

Substance	PfCRT-mediated [3H]CQ transport, cis-inhibition (% PfCRTDd2 control) (PfCRT^Dd2 [1]; [test solute] = 0.5 mM)	PfCRT-mediated [3H]CQ transport, cis-inhibition (% PfCRTDd2 control) (PfCRT^Dd2 [1]; [test solute] = 1 mM)	PfCRT-mediated [3H]CQ transport, cis-inhibition (% PfCRTDd2 control) (PfCRT^Dd2 [1]; [test solute] = 2 mM)	PfCRT-mediated [3H]CQ transport, cis-inhibition (% PfCRTEcu1110 control) (PfCRT^Ecu1110 [2]; [test solute] = 0.5 mM)	PfCRT-mediated [3H]CQ transport, cis-inhibition (% PfCRTEcu1110 control) (PfCRT^Ecu1110 [2]; [test solute] = 1 mM)	PfCRT-mediated [3H]CQ transport, cis-inhibition (% PfCRTEcu1110 control) (PfCRT^Ecu1110 [2]; [test solute] = 2 mM)	[3H]CQ transport (% PfCRTEcu1110 control), cis-inhibition, PfCRTEcu1110 (PfCRT^Ecu1110 [2]; [test solute] = 0.5 mM) [% PfCRTEcu1110 control]	[3H]CQ transport (% PfCRTEcu1110 control), cis-inhibition, PfCRTEcu1110 (PfCRT^Ecu1110 [2]; [test solute] = 1 mM) [% PfCRTEcu1110 control]	[3H]CQ transport (% PfCRTEcu1110 control), cis-inhibition, PfCRTEcu1110 (PfCRT^Ecu1110 [2]; [test solute] = 2 mM) [% PfCRTEcu1110 control]	PfCRT-mediated [3H]CQ transport, trans-stimulation (% PfCRT3D7 control) (PfCRT^3D7; [5])	PfCRT-mediated [3H]CQ transport, trans-stimulation (% PfCRT3D7 control) (PfCRT^3D7; [6])	PfCRT-mediated [3H]CQ transport, trans-stimulation (% PfCRTDd2 control) (PfCRT^Dd2 [3]; [5])	PfCRT-mediated [3H]CQ transport, trans-stimulation (% PfCRTDd2 control) (PfCRT^Dd2 [3]; [6])	[3H]CQ transport (% PfCRTDd2 control), trans-stimulation, PfCRTDd2 (PfCRT^Dd2 [3]; [7]) [% PfCRTDd2 control]	[3H]CQ transport (% PfCRTDd2 control), trans-stimulation, PfCRTDd2 (PfCRT^Dd2 [3]; [8]) [% PfCRTDd2 control]	PfCRT-mediated [3H]CQ transport, trans-stimulation (% PfCRTEcu1110 control) (PfCRT^Ecu1110 [4]; [5])	PfCRT-mediated [3H]CQ transport, trans-stimulation (% PfCRTEcu1110 control) (PfCRT^Ecu1110 [4]; [6])	[3H]CQ transport (% PfCRTDd2 control), trans-stimulation, PfCRTEcu1110 (PfCRT^Ecu1110 [4]; [7]) [% PfCRTEcu1110 control]	[3H]CQ transport (% PfCRTDd2 control), trans-stimulation, PfCRTEcu1110 (PfCRT^Ecu1110 [4]; [8]) [% PfCRTEcu1110 control]
DMPNALS [DS-7, host-derived peptide upstream of PL-4]	49 ± 1.1	41 ± 1.0	27 ± 0.2	51 ± 4.1	48 ± 1.4	29 ± 1.5	16 ± 0.2	15 ± 0.4	9.0 ± 0.05	136 ± 4.1	188 ± 4.6	97 ± 3.6	112 ± 3.5	97 ± 3.6	112 ± 3.5	128 ± 3.1	135 ± 4.2	39 ± 1.6	41 ± 1.9
DPENF [DEF-5]	29 ± 2.1	20 ± 1.1	11 ± 0.1	41 ± 2.7	28 ± 1.0	18 ± 0.3	13 ± 0.1		6.0 ± 0.3	129 ± 3.2	162 ± 4.2	100 ± 2.1	112 ± 0.5	100 ± 2.1	112 ± 0.5	122 ± 1.9	137 ± 2.5	37 ± 1.5	41 ± 2.3
DPENFR [DR-6]	38 ± 0.3	30 ± 1.0	17 ± 0.3	38 ± 1.3	35 ± 4.2	27 ± 0.1		11 ± 0.1	9.0 ± 0.02	137 ± 4.6	188 ± 5.7	100 ± 3.7	112 ± 4.3	100 ± 3.7	112 ± 4.3	118 ± 0.6	127 ± 4.2	36 ± 1.4	38 ± 1.5
DTSLKPIS [DS-8]	40 ± 2.2	28 ± 0.6	19 ± 0.3	57 ± 2.1	42 ± 3.1	28 ± 1.3				135 ± 3.7	180 ± 3.4	95 ± 3.1	112 ± 1.2			127 ± 2.8	140 ± 4.1		
